From US10131652B2, “Pyrimidinyloxy benzene derivatives as herbicides” (E. I. DU PONT DE NEMOURS AND COMPANY, priority 2014, dated 2018)
Where two headings read alike, the source gives them in different places.

What was measured:
Format in all cases: in vivo
[1] = system: barnyardgrass (Echinochloa crus-galli); test: Test B pre-/postemergence plant response; details: Echinochloa crus-galli, 240 h, read-out: Plant response rating, Barnyardgrass; for pest or weed control at 125 g/ha: 125 g ai/ha; for pest or weed control at 500 g/ha: 500 g ai/ha
Method in brief: (§1)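 Steps: plant seeds in loam soil–sand mix; spray soil preemergence, and in parallel spray 2–10 cm one- to two-leaf plants postemergence; hold ~10 days in greenhouse; visually rate injury against untreated controls (0 = no effect, 100 = complete control).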

corn (Zea mays) = test: Test B pre-/postemergence plant response; details: Zea mays, 240 h; for Corn plant response rating (crop injury, 0 = no effect, 100 = complete kill) at 125 g/ha: 125 g ai/ha; for Corn plant response rating (crop injury, 0 = no effect, 100 = complete kill) at 500 g/ha: 500 g ai/ha
Method in brief: as §1

[2] = system: giant foxtail (Setaria faberii); test: Test B pre-/postemergence plant response; details: Setaria faberi, 240 h, read-out: Plant response rating, Foxtail, Giant; for pest or weed control at 125 g/ha: 125 g ai/ha; for pest or weed control at 500 g/ha: 500 g ai/ha
Method in brief: as §1

[3] = system: pigweed (Amaranthus retroflexus); test: Test B pre-/postemergence plant response; details: Amaranthus retroflexus, 240 h, read-out: Plant response rating, Pigweed; for pest or weed control at 125 g/ha: 125 g ai/ha; for pest or weed control at 500 g/ha: 500 g ai/ha
Method in brief: as §1

[4] = system: wheat (Triticum aestivum); test: Test B pre-/postemergence plant response; details: Triticum aestivum, 240 h, read-out: Plant response rating, Wheat; for plant injury at 125 g/ha: 125 g ai/ha; for plant injury at 500 g/ha: 500 g ai/ha
Method in brief: as §1

[5] = system: barnyardgrass (Echinochloa crus-galli); test: Test C flooded paddy test plant response; details: Echinochloa crus-galli; Flood, 250 g ai/ha; scale of 0 to 100 where 0 is no effect and 100 is complete control; 13 to 15 days; read-out: Barnyardgrass plant response rating
Method in brief: (§2)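 Greenhouse paddy assay, 13–15 days. Treatment into 3 cm floodwater over 2-leaf plants; visual 0–100 rating against controls.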

[6] = system: ducksalad (Heteranthera limosa); test: Test C flooded paddy test plant response; details: Heteranthera limosa; Flood, 250 g ai/ha; scale of 0 to 100 where 0 is no effect and 100 is complete control; 13 to 15 days; read-out: Ducksalad plant response rating
Method in brief: as §2

rice (Oryza sativa) = test: Test C flooded paddy test plant response; details: Oryza sativa; Flood, 250 g ai/ha; scale of 0 to 100 where 0 is no effect and 100 is complete control; 13 to 15 days; read-out: Rice plant response rating
Method in brief: as §2

[7] = system: small-flower umbrella sedge (Cyperus difformis); test: Test C flooded paddy test plant response; details: Cyperus difformis; Flood, 250 g ai/ha; scale of 0 to 100 where 0 is no effect and 100 is complete control; 13 to 15 days; read-out: Sedge, Umbrella plant response rating
Method in brief: as §2

[8] = system: blackgrass (Alopecurus myosuroides); test: Test D pre-/postemergence plant response; details: Alopecurus myosuroides; for pest or weed control at 31 g/ha: 31 g ai/ha; for pest or weed control at 62 g/ha: 62 g ai/ha; for pest or weed control at 125 g/ha: 125 g ai/ha; for pest or weed control at 250 g/ha: 250 g ai/ha
Text: (§3) Seeds of plant species selected from blackgrass (Alopecurus myosuroides), Italian ryegrass (Lolium multiflorum), winter wheat (Triticum aestivum), galium (catchweed bedstraw, Galium aparine), corn (Zea mays), large (Lg) crabgrass (Digitaria sanguinalis), giant foxtail (Setaria faberii), johnsongrass (Sorghum halepense), lambsquarters (Chenopodium album), morningglory (Ipomoea coccinea), yellow nutsedge (Cyperus esculentus), pigweed (Amaranthus retroflexus), ragweed (common ragweed, Ambrosia elatior), soybean (Glycine max), bamyardgrass (Echinochloa crus-galli), oilseed rape (Brassica napus), waterhemp (common waterhemp, Amaranthus rudis), and velvetleaf (Abutilon theophrasti) were planted into a blend of loam soil and sand and treated preemergence with test chemicals formulated in a non-phytotoxic solvent mixture which included a surfactant. At the same time, plants selected from these crop and weed species and also kochia (Kochia scoparia), wild oat (Avena fatua), and chickweed (common chickweed, Stellaria media) were planted in pots containing Redi-Earth® planting medium (Scotts Company, 14111 Scottslawn Road, Marysville, Ohio 43041) comprising spaghnum peat moss, vermiculite, wetting agent and starter nutrients and treated with postemergence applications of test chemicals formulated in the same manner. Plants ranged in height from 2 to 18 cm (1- to 4-leaf stage) for postemergence treatments. Treated plants and controls were maintained in a greenhouse for 13 to 15 days, after which time all species were compared to controls and visually evaluated. Plant response ratings, summarized in Table D, are based on a scale of 0 to 100 where 0 is no effect and 100 is complete control. A dash (-) response means no test result.

[9] = system: galium (catchweed bedstraw, Galium aparine); test: Test D pre-/postemergence plant response; details: Galium; for pest or weed control at 31 g/ha: 31 g ai/ha; for pest or weed control at 62 g/ha: 62 g ai/ha; for pest or weed control at 125 g/ha: 125 g ai/ha; for pest or weed control at 250 g/ha: 250 g ai/ha
Text: as §3

[10] = post-emergence, postemergence, 0 to 100 scale, 0 no effect, 100 complete control
[11] = post-emergence, Postemergence, 0 to 100 scale (0 no effect, 100 complete control)
[12] = pre-emergence, Preemergence, 0 to 100 scale where 0 is no effect and 100 is complete control
[13] = post-emergence, Postemergence, scale 0 to 100, 0 no effect, 100 complete control, read-out: Plant response rating, Blackgrass
[14] = pre-emergence, Preemergence, read-out: Plant response rating (scale 0 to 100), Blackgrass
[15] = pre-emergence, Preemergence, scale 0 to 100 (0 no effect, 100 complete control), read-out: Plant response rating, Blackgrass
[16] = post-emergence, Postemergence, scale 0 to 100, 0 no effect, 100 complete control, read-out: Plant response rating, Galium
[17] = pre-emergence, Preemergence, read-out: Plant response rating (scale 0 to 100), Galium
[18] = pre-emergence, Preemergence, scale 0 to 100 (0 no effect, 100 complete control), read-out: Plant response rating, Galium

Which results are given for FC(F)c1cc(-c2ccccc2Oc2ncc(Br)cn2)no1 [Compound 62, 5-bromo-2-[2-[5-(difluoromethyl)-3-isoxazolyl]phenoxy]pyrimidine]?
pest or weed control at 125 g/ha [1, 10]: 90%; pest or weed control at 500 g/ha [1, 11]: 100%; pest or weed control at 125 g/ha [1, 12]: 80%; pest or weed control at 500 g/ha [1, 12]: 100%; Corn plant response rating (crop injury, 0 = no effect, 100 = complete kill) at 125 g/ha (corn (Zea mays); [10]): 10%; Corn plant response rating (crop injury, 0 = no effect, 100 = complete kill) at 500 g/ha (corn (Zea mays); [11]): 50%; Corn plant response rating (crop injury, 0 = no effect, 100 = complete kill) at 125 g/ha (corn (Zea mays); [12]): 0%; Corn plant response rating (crop injury, 0 = no effect, 100 = complete kill) at 500 g/ha (corn (Zea mays); [12]): 20%; pest or weed control at 125 g/ha [2, 10]: 80%; pest or weed control at 500 g/ha [2, 11]: 90%; pest or weed control at 125 g/ha [2, 12]: 100%; pest or weed control at 500 g/ha [2, 12]: 100%; pest or weed control at 125 g/ha [3, 10]: 100%; pest or weed control at 500 g/ha [3, 11]: 100%; pest or weed control at 125 g/ha [3, 12]: 100%; pest or weed control at 500 g/ha [3, 12]: 100%; plant injury at 125 g/ha [4, 10]: 0%; plant injury at 500 g/ha [4, 11]: 30%; plant injury at 125 g/ha [4, 12]: 20%; plant injury at 500 g/ha [4, 12]: 30%; pest or weed control at 250 g/ha [5]: 35%; pest or weed control at 250 g/ha [6]: 100%; plant injury at 250 g/ha (rice (Oryza sativa)): 40%; pest or weed control at 250 g/ha [7]: 90%; pest or weed control at 31 g/ha ([8]; post-emergence, Postemergence, scale 0 to 100 (0 no effect, 100 complete control), read-out: Blackgrass plant response rating): 20%; pest or weed control at 62 g/ha [8, 13]: 25%; pest or weed control at 125 g/ha [8, 13]: 40%; pest or weed control at 250 g/ha [8, 13]: 60%; pest or weed control at 125 g/ha [8, 14]: 90%; pest or weed control at 250 g/ha [8, 14]: 90%; pest or weed control at 31 g/ha [8, 15]: 5%; pest or weed control at 62 g/ha [8, 15]: 90%; pest or weed control at 31 g/ha ([9]; post-emergence, Postemergence, scale 0 to 100 (0 no effect, 100 complete control), read-out: Galium plant response rating): 85%; pest or weed control at 62 g/ha [9, 16]: 85%; pest or weed control at 125 g/ha [9, 16]: 100%; pest or weed control at 250 g/ha [9, 16]: 100%; pest or weed control at 125 g/ha [9, 17]: 100%; pest or weed control at 250 g/ha [9, 17]: 100%; pest or weed control at 31 g/ha [9, 18]: 100%; pest or weed control at 62 g/ha [9, 18]: 100%
